Measured values: patent US20260055364A1, “Methods for Improving Sperm Function and Fertilizing Ability for Assisted Reproduction Techniques” (Consejo Nacional de Investigaciones Cientificas y Técnicas …, priority 2022, published 2026)

Experiments:
mouse sperm = conditions: cited from earlier work
sperm = conditions: cited from earlier work
human sperm [1] = conditions: high-concentration ionophore treatment and removal; cited from earlier work
human sperm [2] = test: Sperm motility analysis (CASA) of human sperm after ionophore and/or temperature treatment; assay type: cell-based; conditions: 0.5 μM for 2 min before incubation at 40° C. for 30 min; FIG. 2A
Description: Sperm Motility Analysis: Aliquots of 9.7 μl of sperm suspensions were placed on slides under 18 mm×18 mm coverslips, obtaining a preparation depth of 30 μm, and maintained at 37° C. using a temperature-controlled stage. Sperm motility parameters were evaluated using the Sperm Class Analyzer® system (SCA v.6.2.0.1., Microptic SL, Barcelona, Spain), acquiring 60 frames per second. At least 5 microscopic fields and 300 sperm were analyzed. The following parameters were assessed: curvilinear velocity (VCL, μm/s), straight line velocity (VSL, μm/s), average path velocity (VAP, μm/s), linearity ([…]), straightness (STR×100, %), wobble (WOB: VAP/VCL×100, a measure of sperm head side to side movement, %), amplitude of lateral head displacement (ALH, μm) and beat cross frequency (BCF, Hz). Sperm motility was measured and classified as follows: rapid progressive (VCL≥35 μm/s; STR≥80%), medium progressive (VCL≥15 μm/s; STR≥80%), in situ (VCL<15 μm/s; VAP≥5 μm/s) and immotile (VAP<5 μm/s). Percentages of total (rapid progressive+medium progressive+in situ) and progressive (rapid+medium progressive) motility were recorded. Drifting was set in 25 μm/s. Sperm were considered hyperactivated when presenting VCL≥150 μm/s, LIN<50% and ALH≥3.5 μm.
Semen samples from healthy men were processed by density gradient centrifugation as stated in Example 1. […]

CNc1ccc2oc(C[C@H]3O[C@@]4(CC[C@H]3C)O[C@H]([C@H](C)C(=O)c3ccc[nH]3)[C@H](C)C[C@H]4C)nc2c1C(=O)O [A23187]
hyperactivation after removal of the ionophore (mouse sperm; 10-20 μM for 10 min, then removal, Tateno et al): acquires HA
sperm motility (mouse sperm; 10-20 μM for 10 min, Tateno et al): immobilizes
fertility of sperm from CatSper1−/−, Slo3−/− and Adcy10−/− knock-out lines (mouse sperm; 10-20 μM for 10 min with posterior removal, Navarrete et al (2016)): overcomes infertility
sperm HA (sperm; 0.5 and 1 μM): provoked sperm HA without immobilization
sperm motility (sperm; 5-10 μM, in a few minutes): immobilized sperm
intracellular Ca2+ concentrations (sperm; 5-10 μM): substantially elevated
motility after ionophore treatment (human sperm [1]): does not regain motility
levels of HA compared to control (human sperm [2]): higher levels of HA
